Source: patent US9512087B2, “Hybrid molecules containing pharmacophores of fluconazole as antifungal agents and their preparation” (Council for Scientific & Industrial Research, priority 2011, dated 2016)
Values after ≈ are worked out from the molar mass of the structure shown.

Experiments:
Test in all cases: Antifungal MIC, broth dilution
[1] = system: A. niger ATCC 16404; format: cell-based, Aspergillus niger; settings: end point 48 hours; for MIC50: Aspergillus niger, ATCC16404, RPMI 1640 with MOPS, read-out: An01 MIC50
Procedure: (§1) The compounds of Formula 1 were tested for antifungal activity against Candida albicans, Aspergillus niger and Fusarium proliferatum. In vitro evaluation of antifungal activity was performed by determining the minimum inhibitory concentration (MIC) following standard methods (CLSI: Reference method for broth dilution antifungal susceptibility testing of yeasts; Approved standard, second edition M27-A2, 2002; CLSI: Reference method for broth dilution antifungal susceptibility testing of filamentous fungi; Approved standard M38-A, 2002). Anti-fungal susceptibility testing of these anti-fungal compounds was done by broth dilution method using RPMI 1640 medium with MOPS buffer. Known anti-fungal agents like fluconazole and amphotericin-B were used as positive control. End points were determined after 48 hours visually and by using spectrophotometer wherever necessary. Different dilutions were tried and various sets of experiments performed. The activity parameters are enumerated in Table 5.

[2] = system: C. neoformans ATCC 34664; format: cell-based; settings: end point 48 hours; for MIC50: Cryptococcus neoformans, ATCC34664, RPMI 1640 with MOPS, read-out: Cn01 MIC50
[3] = system: C. glabrata ATCC 90030; format: cell-based; settings: end point 48 hours; for MIC50: Nakaseomyces glabratus, ATCC90030, RPMI 1640 with MOPS, read-out: Cg01 MIC50
[4] = system: C. albicans ATCC 24433; format: cell-based, Candida albicans; settings: end point 48 hours; for MIC80 / MIC50: Candida albicans, ATCC24433, RPMI 1640 with MOPS; for MIC80: read-out: Ca01 A: MIC80; for MIC50: read-out: Ca01 B: MIC50
Procedure: as §1

[5] = system: C. krusei ATCC 6258; format: cell-based; settings: end point 48 hours; for MIC50: Pichia kudriavzevii, ATCC6258, RPMI 1640 with MOPS, read-out: Ck01 MIC50
[6] = system: C. tropicalis ATCC 750; format: cell-based; settings: end point 48 hours; for MIC50: Candida tropicalis, ATCC750, RPMI 1640 with MOPS, read-out: Ct01 MIC50
[7] = system: A. fumigatus ATCC 46645; format: cell-based; settings: end point 48 hours; for MIC50: Aspergillus fumigatus, ATCC46645, RPMI 1640 with MOPS, read-out: Afm01 MIC50
[8] = system: F. proliferatum ATCC 10052; format: cell-based, Fusarium proliferatum; settings: end point 48 hours; for MIC50: Fusarium proliferatum, ATCC10052, RPMI 1640 with MOPS, read-out: Fp01 MIC50
Procedure: as §1

SMILES | MIC50 [1] | MIC50 [2] | MIC50 [3] | MIC80 [4] | MIC50 [4] | MIC50 [5] | MIC50 [6] | MIC50 [7] | MIC50 [8] | An01 MIC50 ([1]; RPMI 1640 with MOPS) | Cn01 MIC50 ([2]; RPMI 1640 with MOPS) | Cg01 MIC50 ([3]; RPMI 1640 with MOPS) | Ca01 A: MIC80 ([4]; RPMI 1640 with MOPS) | Ca01 B: MIC50 ([4]; RPMI 1640 with MOPS) | Ck01 MIC50 ([5]; RPMI 1640 with MOPS) | Ct01 MIC50 ([6]; RPMI 1640 with MOPS) | Afm01 MIC50 ([7]; RPMI 1640 with MOPS) | Fp01 MIC50 ([8]; RPMI 1640 with MOPS)
O=C(/C=C/c1ccc(Cl)cc1Cl)c1ccc(OCC(O)(Cn2cncn2)c2ccc(F)cc2F)cc1 (stereo not drawn) [Compound 1A-7, (E)-3-(2,4-dichlorophenyl)-1-(4-(2-(2,4-difluorophenyl)-2-hydroxy-3-(1H-1,2,4-triazol-1-yl)propoxy)phenyl)prop-2-en-1-one] | > 4 µg/mL | 2 µg/mL (≈ 3.77 µM) | 0.5 µg/mL (≈ 0.943 µM) | 0.25 µg/mL (≈ 0.471 µM) | 0.25 µg/mL (≈ 0.471 µM) | 2 µg/mL (≈ 3.77 µM) | 1 µg/mL (≈ 1.89 µM) | > 4 µg/mL | > 4 µg/mL | – | – | – | – | – | – | – | – | –
O=C(/C=C/c1ccccc1F)c1ccc(OCC(O)(Cn2cncn2)c2ccc(F)cc2F)cc1 (stereo not drawn) [Compound 1A-8] | > 4 µg/mL | 2 µg/mL (≈ 4.17 µM) | 0.25 µg/mL (≈ 0.521 µM) | 0.12 µg/mL (≈ 0.25 µM) | 0.12 µg/mL (≈ 0.25 µM) | 4 µg/mL (≈ 8.34 µM) | 0.5 µg/mL (≈ 1.04 µM) | > 4 µg/mL | > 4 µg/mL | – | – | – | – | – | – | – | – | –
CCCCCCCCOc1ccc(/C=C/C(=O)c2ccc(OCC(O)(Cn3cncn3)c3ccc(F)cc3F)cc2)cc1 (stereo not drawn) [Compound 1A-9] | – | – | – | – | – | – | – | – | – | >2 µg/mL | >2 µg/mL | >2 µg/mL | >2 µg/mL | >2 µg/mL | >2 µg/mL | >2 µg/mL | >2 µg/mL | >2 µg/mL
COc1ccc(/C=C/C(=O)c2ccc(OCC(O)(Cn3cncn3)c3ccc(F)cc3)cc2)cc1 (stereo not drawn) [Compound 1A-10] | > 4 µg/mL | 0.5 µg/mL (≈ 1.06 µM) | 0.5 µg/mL (≈ 1.06 µM) | 2 µg/mL (≈ 4.22 µM) | 0.25 µg/mL (≈ 0.528 µM) | 4 µg/mL (≈ 8.45 µM) | 4 µg/mL (≈ 8.45 µM) | > 4 µg/mL | > 4 µg/mL | – | – | – | – | – | – | – | – | –
COc1ccc(/C=C/C(=O)c2ccc(OCC(O)(Cn3cncn3)c3ccc(Br)cc3)cc2)cc1 (stereo not drawn) [Compound 1A-11] | > 4 µg/mL | 1 µg/mL (≈ 1.87 µM) | 1 µg/mL (≈ 1.87 µM) | 1 µg/mL (≈ 1.87 µM) | 0.5 µg/mL (≈ 0.936 µM) | > 4 µg/mL | > 4 µg/mL | > 4 µg/mL | > 4 µg/mL | – | – | – | – | – | – | – | – | –
O=C(/C=C/c1ccc(Cl)cc1)c1ccc(OCC(O)(Cn2cncn2)c2ccc(F)cc2)cc1 (stereo not drawn) [Compound 1A-12] | > 4 µg/mL | 0.5 µg/mL (≈ 1.05 µM) | 0.5 µg/mL (≈ 1.05 µM) | 2 µg/mL (≈ 4.18 µM) | 0.5 µg/mL (≈ 1.05 µM) | 4 µg/mL (≈ 8.37 µM) | 4 µg/mL (≈ 8.37 µM) | > 4 µg/mL | > 4 µg/mL | – | – | – | – | – | – | – | – | –
O=C(/C=C/c1cccs1)c1ccc(OCC(O)(Cn2cncn2)c2ccc(F)cc2F)cc1 (stereo not drawn) [Compound 1A-13] | > 8 µg/mL | 1 µg/mL (≈ 2.14 µM) | 0.25 µg/mL (≈ 0.535 µM) | 0.25 µg/mL (≈ 0.535 µM) | 0.12 µg/mL (≈ 0.257 µM) | 8 µg/mL (≈ 17.1 µM) | 0.5 µg/mL (≈ 1.07 µM) | > 8 µg/mL | > 8 µg/mL | – | – | – | – | – | – | – | – | –
O=C(/C=C/c1ccc2ccccc2c1)c1ccc(OCC(O)(Cn2cncn2)c2ccc(F)cc2F)cc1 (stereo not drawn) [Compound 1A-14] | > 4 µg/mL | 0.5 µg/mL (≈ 0.977 µM) | 0.5 µg/mL (≈ 0.977 µM) | 0.5 µg/mL (≈ 0.977 µM) | 0.25 µg/mL (≈ 0.489 µM) | 1 µg/mL (≈ 1.95 µM) | 0.5 µg/mL (≈ 0.977 µM) | > 4 µg/mL | > 4 µg/mL | – | – | – | – | – | – | – | – | –
O=C(/C=C/c1c2ccccc2cc2ccccc12)c1ccc(OCC(O)(Cn2cncn2)c2ccc(F)cc2F)cc1 (stereo not drawn) [Compound 1A-15] | > 2 µg/mL | 2 µg/mL (≈ 3.56 µM) | 2 µg/mL (≈ 3.56 µM) | > 2 µg/mL | > 2 µg/mL | > 2 µg/mL | > 2 µg/mL | > 2 µg/mL | > 2 µg/mL | – | – | – | – | – | – | – | – | –
Cn1cc(/C=C/C(=O)c2ccc(OCC(O)(Cn3cncn3)c3ccc(F)cc3F)cc2)c2ccccc21 (stereo not drawn) [Compound 1A-16] | > 4 µg/mL | 4 µg/mL (≈ 7.77 µM) | 2 µg/mL (≈ 3.89 µM) | 0.5 µg/mL (≈ 0.972 µM) | 0.25 µg/mL (≈ 0.486 µM) | > 4 µg/mL | 2 µg/mL (≈ 3.89 µM) | > 4 µg/mL | > 4 µg/mL | – | – | – | – | – | – | – | – | –
O=C(/C=C/c1cccs1)c1ccc(OCC(O)(Cn2cncn2)c2ccc(F)cc2)cc1 (stereo not drawn) [Compound 1A-17] | > 8 µg/mL | 1 µg/mL (≈ 2.22 µM) | 0.25 µg/mL (≈ 0.556 µM) | 0.5 µg/mL (≈ 1.11 µM) | 0.25 µg/mL (≈ 0.556 µM) | 8 µg/mL (≈ 17.8 µM) | 2 µg/mL (≈ 4.45 µM) | > 8 µg/mL | > 8 µg/mL | – | – | – | – | – | – | – | – | –
C=CCOC(COc1ccc(C(=O)/C=C/c2ccc(Cl)cc2Cl)cc1)(Cn1cncn1)c1ccc(F)cc1F (stereo not drawn) [Compound 1A-18, (E)-1-(4-(2-(Allyloxy)-2-(2,4-difluorophenyl)-3-(1H-1,2,4-triazol-1-yl)propoxy)phenyl)-3-(2,4-dichlorophenyl)prop-2-en-1-one] | > 4 µg/mL | > 4 µg/mL | > 4 µg/mL | > 4 µg/mL | > 4 µg/mL | > 4 µg/mL | > 4 µg/mL | > 4 µg/mL | > 4 µg/mL | – | – | – | – | – | – | – | – | –
COC(COc1ccc(C(=O)/C=C/c2ccc(Cl)cc2Cl)cc1)(Cn1cncn1)c1ccc(F)cc1F (stereo not drawn) [Compound 1A-19, (E)-3-(2,4-dichlorophenyl)-1-(4-(2-(2,4-difluorophenyl)-2-methoxy-3-(1H-1,2,4-triazol-1-yl)propoxy)phenyl)prop-2-en-1-one] | > 4 µg/mL | > 4 µg/mL | 1 µg/mL (≈ 1.84 µM) | > 4 µg/mL | 1 µg/mL (≈ 1.84 µM) | > 4 µg/mL | > 4 µg/mL | > 4 µg/mL | > 4 µg/mL | – | – | – | – | – | – | – | – | –
COc1ccc(C(=O)/C=C/c2ccc(OCC(O)(Cn3cncn3)c3ccc(F)cc3F)cc2)cc1 (stereo not drawn) [Compound 1A-20] | > 4 µg/mL | 1 µg/mL (≈ 2.03 µM) | 0.25 µg/mL (≈ 0.509 µM) | 0.25 µg/mL (≈ 0.509 µM) | 0.12 µg/mL (≈ 0.244 µM) | 4 µg/mL (≈ 8.14 µM) | 1 µg/mL (≈ 2.03 µM) | 8 µg/mL (≈ 16.3 µM) | > 4 µg/mL | – | – | – | – | – | – | – | – | –
Cc1ccc(C(=O)/C=C/c2ccc(OCC(O)(Cn3cncn3)c3ccc(F)cc3F)cc2)cc1 (stereo not drawn) [Compound 1A-21] | > 4 µg/mL | 1 µg/mL (≈ 2.1 µM) | 0.25 µg/mL (≈ 0.526 µM) | 0.25 µg/mL (≈ 0.526 µM) | 0.12 µg/mL (≈ 0.252 µM) | 2 µg/mL (≈ 4.21 µM) | 1 µg/mL (≈ 2.1 µM) | 8 µg/mL (≈ 16.8 µM) | > 4 µg/mL | – | – | – | – | – | – | – | – | –
O=C(/C=C/c1ccc(OCC(O)(Cn2cncn2)c2ccc(F)cc2F)cc1)c1ccc(Cl)cc1Cl (stereo not drawn) [Compound 1A-22] | > 4 µg/mL | 1 µg/mL (≈ 1.89 µM) | 0.5 µg/mL (≈ 0.943 µM) | 0.25 µg/mL (≈ 0.471 µM) | 0.12 µg/mL (≈ 0.226 µM) | 2 µg/mL (≈ 3.77 µM) | 1 µg/mL (≈ 1.89 µM) | > 4 µg/mL | > 4 µg/mL | – | – | – | – | – | – | – | – | –
